For orientation: Kd means the concentration at which binding is half-saturated. Lower therefore signals tighter binding.

Assay [1] has as its target IniA (Mycolicibacterium smegmatis, UniProt I7FE16, K73A). As to the kind of experiment: isothermal titration calorimetry. It is filed as binding. From the text:
isothermal titration calorimetry on IniA | showing only a twofold reduction in affinity for GMPPNP or GTP | the mutant IniA largely maintained interactions with GDP

The target of assay [2] is IniA (Mycolicibacterium smegmatis, UniProt I7FE16). As to the kind of experiment: isothermal titration calorimetry. It is filed as binding. A general note: Isothermal titration calorimetry measures the heat released or taken up as one component is titrated into another.
Chain of IniA (Mycolicibacterium smegmatis, UniProt I7FE16) (I7FE16 entry or part of it): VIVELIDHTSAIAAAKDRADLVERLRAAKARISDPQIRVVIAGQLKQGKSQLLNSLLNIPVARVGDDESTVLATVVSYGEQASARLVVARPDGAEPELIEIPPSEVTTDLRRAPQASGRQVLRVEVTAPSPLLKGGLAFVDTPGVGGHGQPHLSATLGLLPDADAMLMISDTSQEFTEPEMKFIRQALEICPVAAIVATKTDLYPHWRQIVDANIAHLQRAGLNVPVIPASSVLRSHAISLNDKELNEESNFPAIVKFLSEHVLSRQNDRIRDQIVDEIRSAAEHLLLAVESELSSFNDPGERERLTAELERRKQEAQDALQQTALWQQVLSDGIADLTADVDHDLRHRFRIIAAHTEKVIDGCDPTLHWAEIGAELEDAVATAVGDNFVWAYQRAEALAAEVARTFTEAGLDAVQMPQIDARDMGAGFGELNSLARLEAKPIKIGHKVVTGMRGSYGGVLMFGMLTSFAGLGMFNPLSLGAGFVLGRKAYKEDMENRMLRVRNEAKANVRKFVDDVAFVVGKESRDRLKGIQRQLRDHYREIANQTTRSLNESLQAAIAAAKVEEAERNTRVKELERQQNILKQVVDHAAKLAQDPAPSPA

Chain of IniA (Mycolicibacterium smegmatis, UniProt I7FE16, K73A) (I7FE16 entry or part of it K73A): as the sequence (I7FE16 entry or part of it) above

For `Nc1nc2c(ncn2[C@@H]2O[C@H](COP(=O)(O)OP(=O)(O)O)[C@@H](O)[C@H]2O)c(=O)[nH]1` [GDP], the Kd on IniA [1] was roughly 1060 nM; on IniA [2] it was 750 nM.

For the compound `Nc1nc2c(ncn2[C@@H]2O[C@H](COP(=O)(O)OP(=O)(O)NP(=O)(O)O)[C@@H](O)[C@H]2O)c(=O)[nH]1` [GMPPNP], the Kd was roughly 23200 nM at IniA [1] and 9010 nM at IniA [2].

With `Nc1nc2c(ncn2[C@@H]2O[C@H](COP(=O)(O)OP(=O)(O)OP(=O)(O)O)[C@@H](O)[C@H]2O)c(=O)[nH]1` [GTP], the Kd at IniA [1] is roughly 1430 nM; on IniA [2] it was 740 nM.
